# Measurements from paper PMC12677699, “Utilizing Proteolytic‐Resistant Nano‐Short Peptide Based on Naphthyl Tail‐Anchored to Combat Bacterial Infections” (Advanced Science, 2025).
# Tests used:
# [1] = tested on: E. coli ATCC 25922; assay: Drug resistance assay, 30 serial passages; type: cell-based, Escherichia coli; conditions: E. coli ATCC 25922, 30 successive passages at sub-MIC concentrations
# Procedure: The potential resistance development of nano‐short peptides was evaluated through 30 serial passages of E. coli ATCC 25922 and S. aureus ATCC 29213 in sub‐MIC conditions,^[ [38] ^] using gentamicin as control.
# [2] = tested on: ICR female mice; assay: In vivo toxicity of N4; parameters: species or system mouse
# Procedure: Animal experiments were conducted in accordance with the Guide for the Care and Use of Laboratory Animals at Northeast Agricultural University (NEAU‐[2011]‐9). The experimental subjects comprised female ICR mice, aged 6 to 8 weeks and weighing 19 ± 1.1 g, sourced from Liaoning Changsheng Biotechnology Co. Thirty‐two mice were randomly divided into four groups after a 3‐day pre‐feeding period, followed by intraperitoneal injections of N4 at different doses (5, 10, and 20 mg kg^−1) to assess its toxicity, with saline treatment serving as the control group. Following injection, behavioral alterations were observed over a brief duration (0.5, 1, 4, and 8 h), and then body weight changes were monitored for 3 days. On the third day, the mice were euthanized via ether inhalation anesthesia, and blood samples were collected from the orbital vein for biochemical analysis, which was used to determine the levels of ALT, ALP, BUN, CREA, and TBIL. Subsequently, the liver, spleen, and kidneys were taken to determine organ coefficients. The relative organ weights were calculated using the formula: relative organ weight (%) = (organ weight/mouse body weight) × 100%. These organs were then fixed in 4% paraformaldehyde, following established protocols, for subsequent histological examination.^[ [70] ^]
# [3] = ThT fluorescence assay; type: physicochemical; conditions: 16 × 10^−6 M N4, ThT 40 × 10^−6 M, deionized water, 20 min, 37 °C
# Procedure: The fluorescent dye was used for fluorescence measurements and imaging of N4. ^[ [48] ^] […] An equal volume of ThT solution was added to each well (final concentration: 40 × 10^−6 M), with ThT in deionized water serving as the control. After 20 min incubation at 37 °C, fluorescence intensity was measured using a microplate reader (excitation λ = 450 nm, emission λ = 480 nm). N4 was stained with 40 × 10^−6 M ThT for 30 min and observed by imaging using a fluorescence microscope.
# [4] = tested on: S. aureus ATCC 29213; assay: Live/dead staining, PI and SYTO 9; type: cell-based, Staphylococcus aureus
# Excerpt: Finally, a fluorescence microscope (EVOS FL Auto, Massachusetts, USA) was used to observe the fluorescence images of the bacteria under different background colors and representative pictures were taken.
# [5] = tested on: S. aureus ATCC 29213; assay: Time-kill kinetics; type: cell-based, Staphylococcus aureus; conditions: PBS pH 7.4, n = 3
# Procedure: Samples were collected at pre‐determined time points post‐exposure, serially diluted, and plated on Mueller‐Hinton agar (MHA) for viable colony counting after 18–24 h incubation at 37 °C. Untreated bacterial suspensions served as controls.
# [6] = 5, 10, 20 mg kg^−1 intraperitoneal, day 3, p > 0.05, n = 8
smiles,measurement,setting,value
N=C(N)NCCC[C@H](NC(=O)[C@@H](CCCNC(=N)N)NC(=O)[C@H](Cc1cccc2ccccc12)NC(=O)[C@H](Cc1cccc2ccccc12)NC(=O)[C@H](Cc1cccc2ccccc12)NC(=O)[C@@H](N)Cc1cccc2ccccc12)C(=O)N[C@@H](CCCNC(=N)N)C(=O)N1CCC[C@H]1C(=O)O (stereo in doubt) [Peptide N4],increase in MIC values after serial passage,[1],remained largely unchanged
same,clinical signs,"[2]; 20 mg kg^−1 intraperitoneal, ICR female mice, only two mice, within 1 h, n = 8",mild and transient symptoms
same,body weight vs control group,"[2]; 5, 10, 20 mg kg^−1 intraperitoneal, 3 days, p > 0.05, n = 8",no significant differences
same,"histopathology of liver, spleen, kidney (H&E)","[2]; 5, 10, 20 mg kg^−1 intraperitoneal, day 3",did not inflict histopathological damage
same,"levels of ALT, ALP, BUN, CREA and TBIL vs control group",[2]; [6],no significant differences
same,"relative weights of the liver, spleen, and kidney",[2]; [6],remained comparable
same,ThT fluorescence intensity,[3],significant increase
same,red (PI)/green (SYTO 9) fluorescence overlap rate,"[4]; 16 × 10^−6 M N4, S. aureus ATCC 29213, ImageJ",90.74%
same,red (PI)/green (SYTO 9) fluorescence overlap rate,"[4]; 256 × 10^−6 M N4, S. aureus ATCC 29213, ImageJ",98.65%
same,time to eliminate all S. aureus ATCC 29213 cells,[5]; 1 × MIC,≤ 3000 s
same,time to eliminate all S. aureus ATCC 29213 cells,[5]; 4 × MIC,≤ 1200 s
